Results published in US20240072809A1, “ASGPR-BINDING COMPOUNDS FOR THE DEGRADATION OF EXTRACELLULAR PROTEINS” (Avilar Therapeutics, Inc., priority 2020, published 2024).

Target: ASGPR (Homo sapiens (Human), UniProt P07306)
Experiment: Affinity to ASGPR measured by surface plasmon resonance (SPR)
Format: binding
Conditions: ASGPR ligands, Table 2; Biacore 8K, 25° C., steady state fit; read-out: SPR Binding External Calculation: KD

Sequence of ASGPR (P07306 whole entry): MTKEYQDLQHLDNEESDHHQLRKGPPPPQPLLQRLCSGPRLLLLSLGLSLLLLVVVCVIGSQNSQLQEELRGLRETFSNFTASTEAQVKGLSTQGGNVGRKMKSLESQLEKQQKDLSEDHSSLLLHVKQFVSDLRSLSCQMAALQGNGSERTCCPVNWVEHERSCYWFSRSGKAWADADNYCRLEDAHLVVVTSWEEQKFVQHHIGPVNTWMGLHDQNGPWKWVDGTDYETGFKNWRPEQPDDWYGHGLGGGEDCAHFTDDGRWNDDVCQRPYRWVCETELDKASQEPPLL

**Q.** Which Kd does the source give for `OC[C@H]1OC[C@@H](CCc2ccccc2)[C@@H](O)[C@H]1O` [Compound A160, (2R,3R,4R,5R)-2-(hydroxymethyl)-5-phenethyltetrahydro-2H-pyran-3,4-diol] here?
**A.** > 1000 µM

**Q.** With `OC[C@H]1OC[C@@H](c2ccc(F)cc2)[C@@H](O)[C@H]1O` [Compound A164, (2R,3R,4R,5R)-5-(4-fluorophenyl)-2-(hydroxymethyl)tetrahydro-2H-pyran-3,4-diol] as the compound, how does the Kd read?
**A.** 500 to 1000 µM

**Q.** How did the Kd turn out when `OC[C@@H]1CO[C@H](CO)[C@H](O)[C@@H]1O` [Compound A181, (2R,3R,4R,5R)-2,5-bis(hydroxymethyl)tetrahydro-2H-pyran-3,4-diol] was run?
**A.** 100 to 500 µM

**Q.** How did the Kd turn out when `C[C@@H]1CO[C@H](CO)[C@H](O)[C@@H]1O` [Compound A182, (2R,3R,4R,5R)-2-(hydroxymethyl)-5-methyltetrahydro-2H-pyran-3,4-diol] was run?
**A.** > 1000 µM

**Q.** `CC(=O)NC[C@@H]1CO[C@H](CO)[C@H](O)[C@@H]1O` [Compound A183, N-(((3R,4R,5R,6R)-4,5-dihydroxy-6-(hydroxymethyl)tetrahydro-2H-pyran-3-yl)methyl)acetamide] was tested. Which Kd did it give?
**A.** 100 to 500 µM

**Q.** `[N-]=[N+]=NCC1CO[C@H](CO)[C@H](O)[C@@H]1O` (stereo partly drawn) [Compound A184, (2R,3R,4R)-5-(azidomethyl)-2-(hydroxymethyl)tetrahydro-2H-pyran-3,4-diol] was tested. Which Kd did it give?
**A.** < 100 µM

**Q.** For `C[C@@H]1[C@H](Oc2ccccc2)O[C@H](CO)[C@H](O)[C@@H]1O` [Compound A191, (2R,3R,4R,5S,6S)-2-(hydroxymethyl)-5-methyl-6-phenoxytetrahydro-2H-pyran-3,4-diol], which Kd is on record?
**A.** > 1000 µM

**Q.** How did the Kd turn out when `OC[C@H]1OC[C@@H](COc2ccccc2)[C@@H](O)[C@H]1O` [Compound A193, (2R,3R,4R,5S)-2-(hydroxymethyl)-5-(phenoxymethyl)tetrahydro-2H-pyran-3,4-diol] was run?
**A.** 100 to 500 µM

**Q.** With `OC[C@H]1OC[C@@H](Cn2cnnn2)[C@@H](O)[C@H]1O` [Compound A196, (2R,3R,4R,5R)-5-((1H-tetrazol-1-yl)methyl)-2-(hydroxymethyl)tetrahydro-2H-pyran-3,4-diol] as the compound, how does the Kd read?
**A.** < 100 µM

**Q.** Which Kd does the source give for `OC[C@H]1OC[C@@H](CN2CCOCC2)[C@@H](O)[C@H]1O` [Compound A209, (2R,3R,4R,5R)-2-(hydroxymethyl)-5-(morpholinomethyl)tetrahydro-2H-pyran-3,4-diol] here?
**A.** > 1000 µM

**Q.** For `CO[C@@H]1O[C@H](CO)[C@H](O)[C@H](O)[C@@H]1OC` [Compound A217, (2R,3R,4S,5S,6R)-2-(hydroxymethyl)-5,6-dimethoxytetrahydro-2H-pyran-3,4-diol], which Kd is on record?
**A.** > 1000 µM

**Q.** With `O=c1nc(N[C@H]2CO[C@H](CO)[C@H](O)[C@@H]2O)[nH]c(=O)[nH]1` [Compound A283] as the compound, how does the Kd read?
**A.** 100 to 500 µM

**Q.** For `CO[C@@H]1O[C@H](COS(=O)(=O)c2ccc(C)cc2)[C@H](O)[C@H](O)[C@H]1NC(C)=O` [Compound A286], which Kd is on record?
**A.** < 100 µM

Same assay, conditions: ASGPR ligands, Table 4; class symbols; read-out: ASGPR_PR Binding KD

**Q.** With `NC(=O)[C@@H]1CO[C@H](CO)[C@H](O)[C@@H]1O` [Compound A174, (3R,4R,5R,6R)-4,5-dihydroxy-6-(hydroxymethyl)tetrahydro-2H-pyran-3-carboxamide] as the compound, how does the Kd read?
**A.** < 100 µM

**Q.** With `O=C1CCCN1[C@@H]1CO[C@H](CO)[C@H](O)[C@@H]1O` [Compound A180, 1-((3R,4R,5R,6R)-4,5-dihydroxy-6-(hydroxymethyl)tetrahydro-2H-pyran-3-yl)pyrrolidin-2-one] as the compound, how does the Kd read?
**A.** < 100 µM

**Q.** Which Kd does the source give for `O=C(NC[C@@H]1CO[C@H](CO)[C@H](O)[C@@H]1O)C(F)(F)F` [Compound A186, N-(((3R,4R,5R,6R)-4,5-dihydroxy-6-(hydroxymethyl)tetrahydro-2H-pyran-3-yl)methyl)-2,2,2-trifluoroacetamide] here?
**A.** > 1000 µM

**Q.** Which Kd does the source give for `OC[C@H]1OC[C@@H](CNc2nc(Cl)ns2)[C@@H](O)[C@H]1O` [Compound A188, (2R,3R,4R,5R)-5-(((3-chloro-1,2,4-thiadiazol-5-yl)amino)methyl)-2-(hydroxymethyl)tetrahydro-2H-pyran-3,4-diol] here?
**A.** 100 to 500 µM

**Q.** Which Kd does the source give for `OC[C@H]1OC[C@@H](CN2CCCCC2)[C@@H](O)[C@H]1O` [Compound A213, (2R,3R,4R,5R)-2-(hydroxymethyl)-5-(piperidin-1-ylmethyl)tetrahydro-2H-pyran-3,4-diol] here?
**A.** 100 to 500 µM

**Q.** `CO[C@@H]1O[C@H](CO)[C@H](O)[C@H](O)[C@@H]1N1CCOCC1` [Compound A218, (2R,3R,4R,5S,6R)-2-(hydroxymethyl)-6-methoxy-5-morpholinotetrahydro-2H-pyran-3,4-diol] was tested. Which Kd did it give?
**A.** > 1000 µM

**Q.** For `OC[C@H]1OC[C@@H](N2CCOCC2)[C@@H](O)[C@H]1O` [Compound A222, (2R,3R,4R,5R)-2-(hydroxymethyl)-5-morpholinotetrahydro-2H-pyran-3,4-diol], which Kd is on record?
**A.** 100 to 500 µM

**Q.** With `O=C1OCCN1[C@@H]1CO[C@H](CO)[C@H](O)[C@@H]1O` [Compound A223, 3-((3R,4R,5R,6R)-4,5-dihydroxy-6-(hydroxymethyl)tetrahydro-2H-pyran-3-yl)oxazolidin-2-one] as the compound, how does the Kd read?
**A.** < 100 µM

**Q.** With `OC[C@@]12CO[C@@H](O1)[C@H](Nc1nc(Cl)ns1)[C@@H](O)[C@H]2O` [Compound A287, (1S,2R,3R,4R,5S)-4-((3-chloro-1,2,4-thiadiazol-5-yl)amino)-1-(hydroxymethyl)-6,8-dioxabicyclo[3.2.1]octane-2,3-diol] as the compound, how does the Kd read?
**A.** < 100 µM

**Q.** How did the Kd turn out when `OC[C@@]12CO[C@@H](O1)[C@H](Nc1nc(Br)ns1)[C@@H](O)[C@H]2O` [Compound A288] was run?
**A.** < 100 µM

**Q.** How did the Kd turn out when `OC[C@@]12CO[C@@H](O1)[C@H](Nc1nccc(C(F)(F)F)n1)[C@@H](O)[C@H]2O` [Compound A289] was run?
**A.** < 100 µM

**Q.** How did the Kd turn out when `OC[C@@]12CO[C@@H](O1)[C@H](Nc1ncns1)[C@@H](O)[C@H]2O` [Compound A290] was run?
**A.** < 100 µM

**Q.** With `OC[C@@]12CO[C@@H](O1)[C@H](Nc1nc(Cl)nn3cccc13)[C@@H](O)[C@H]2O` [Compound A291] as the compound, how does the Kd read?
**A.** < 100 µM

**Q.** Which Kd does the source give for `COc1cc(Cl)nc(N[C@H]2[C@H]3OC[C@](CO)(O3)[C@H](O)[C@@H]2O)n1` [Compound A292, (1S,2R,3R,4R,5S)-4-((4-chloro-6-methoxypyrimidin-2-yl)amino)-1-(hydroxymethyl)-6,8-dioxabicyclo[3.2.1]octane-2,3-diol] here?
**A.** < 100 µM

**Q.** `COc1cc(C#N)nc(N[C@H]2[C@H]3OC[C@](CO)(O3)[C@H](O)[C@@H]2O)n1` [Compound A294, 2-(((1S,2R,3R,4R,5S)-2,3-dihydroxy-1-(hydroxymethyl)-6,8-dioxabicyclo[3.2.1]octan-4-yl)amino)-6-methoxypyrimidine-4-carbonitrile] was tested. Which Kd did it give?
**A.** < 100 µM

**Q.** How did the Kd turn out when `OC[C@H]1OC[C@H](Nc2cc(Cl)cc(Cl)n2)[C@@H](O)[C@H]1O` [Compound A296] was run?
**A.** < 100 µM

**Q.** Which Kd does the source give for `OC[C@H]1OC[C@H](Nc2cc(Cl)c(Cl)cn2)[C@@H](O)[C@H]1O` [Compound A298] here?
**A.** < 100 µM

**Q.** With `OC[C@H]1OC[C@H](Nc2nc(Br)ns2)[C@@H](O)[C@H]1O` [Compound A299, (2R,3R,4R,5S)-5-[(3-bromo-1,2,4-thiadiazol-5-yl)amino]-2-(hydroxymethyl)oxane-3,4-diol] as the compound, how does the Kd read?
**A.** < 100 µM

**Q.** Which Kd does the source give for `OC[C@H]1OC[C@H](Nc2nc(C(F)(F)F)ns2)[C@@H](O)[C@H]1O` [Compound A300] here?
**A.** < 100 µM

**Q.** Which Kd does the source give for `OC[C@H]1OC[C@H](Nc2ccnc(C(F)(F)F)n2)[C@@H](O)[C@H]1O` [Compound A301] here?
**A.** < 100 µM

**Q.** For `OC[C@H]1OC[C@H](Nc2cccc(C(F)(F)F)n2)[C@@H](O)[C@H]1O` [Compound A302], which Kd is on record?
**A.** < 100 µM

**Q.** For `OC[C@H]1OC[C@H](Nc2nc(Cl)nn3cccc23)[C@@H](O)[C@H]1O` [Compound A304], which Kd is on record?
**A.** < 100 µM

**Q.** `OC[C@H]1OC[C@H](Nc2nc(C(F)(F)F)cs2)[C@@H](O)[C@H]1O` [Compound A306] was tested. Which Kd did it give?
**A.** < 100 µM

**Q.** How did the Kd turn out when `OC[C@H]1OC[C@H](Nc2nccc(Cl)c2C(F)(F)F)[C@@H](O)[C@H]1O` [Compound A307] was run?
**A.** < 100 µM

**Q.** For `N#Cc1ccnc(N[C@H]2CO[C@H](CO)[C@H](O)[C@@H]2O)n1` [Compound A309], which Kd is on record?
**A.** < 100 µM

**Q.** `N#Cc1cncc(N[C@H]2CO[C@H](CO)[C@H](O)[C@@H]2O)n1` [Compound A312] was tested. Which Kd did it give?
**A.** < 100 µM

**Q.** For `OC[C@H]1OC[C@H](Nc2cncc(C(F)(F)F)n2)[C@@H](O)[C@H]1O` [Compound A315], which Kd is on record?
**A.** < 100 µM

**Q.** With `OC[C@H]1OC[C@H](Nc2ccnc(Cl)n2)[C@@H](O)[C@H]1O` [Compound A317] as the compound, how does the Kd read?
**A.** < 100 µM

**Q.** For `OC[C@H]1OC[C@H](Nc2ncccn2)[C@@H](O)[C@H]1O` [Compound A318], which Kd is on record?
**A.** < 100 µM

**Q.** `N#Cc1nc(Cl)cc(N[C@H]2CO[C@H](CO)[C@H](O)[C@@H]2O)n1` [Compound A320] was tested. Which Kd did it give?
**A.** < 100 µM

**Q.** With `OC[C@H]1OC[C@H](Nc2cc(Cl)ncn2)[C@@H](O)[C@H]1O` [Compound A321] as the compound, how does the Kd read?
**A.** < 100 µM

Same assay, conditions: ASGPR ligands, Table 4; numeric lower bounds; read-out: ASGPR_PR Binding KD

**Q.** For `CC(=O)NCCC[C@@H]1CO[C@H](CO)[C@H](O)[C@@H]1O` [Compound A163, N-(3-((3R,4R,5R,6R)-4,5-dihydroxy-6-(hydroxymethyl)tetrahydro-2H-pyran-3-yl)propyl)acetamide], which Kd is on record?
**A.** > 200 µM

**Q.** Which Kd does the source give for `CN(C)C(=O)[C@@H]1CO[C@H](CO)[C@H](O)[C@@H]1O` [Compound A170, (3R,4R,5R,6R)-4,5-dihydroxy-6-(hydroxymethyl)-N,N-dimethyltetrahydro-2H-pyran-3-carboxamide] here?
**A.** > 200 µM

**Q.** How did the Kd turn out when `OC[C@H]1OC=C(C(F)(F)F)[C@@H](O)[C@H]1O` [Compound A221-2, (2R,3R,4R)-2-(hydroxymethyl)-5-(trifluoromethyl)-3,4-dihydro-2H-pyran-3,4-diol] was run?
**A.** > 200 µM

**Q.** For `OC[C@H]1OC[C@H](Nc2cc(C(F)(F)F)cnn2)[C@@H](O)[C@H]1O` [Compound A308], which Kd is on record?
**A.** > 20 µM

**Q.** How did the Kd turn out when `OC[C@H]1OC[C@H](Nc2cc(C(F)(F)F)ncn2)[C@@H](O)[C@H]1O` [Compound A310] was run?
**A.** > 20 µM

**Q.** Which Kd does the source give for `OC[C@H]1OC[C@H](Nc2ncc(-c3ccccc3)cn2)[C@@H](O)[C@H]1O` [Compound A311] here?
**A.** > 20 µM

**Q.** Which Kd does the source give for `OC[C@H]1OC[C@H](Nc2ccc(C(F)(F)F)nn2)[C@@H](O)[C@H]1O` [Compound A313] here?
**A.** > 20 µM

**Q.** With `OC[C@H]1OC[C@H](Nc2cnc(C(F)(F)F)cn2)[C@@H](O)[C@H]1O` [Compound A314] as the compound, how does the Kd read?
**A.** > 20 µM

**Q.** How did the Kd turn out when `OC[C@H]1OC[C@H](Nc2ccc(Cl)nn2)[C@@H](O)[C@H]1O` [Compound A316] was run?
**A.** > 20 µM

**Q.** How did the Kd turn out when `OC[C@H]1OC[C@H](Nc2nc3ccc(C(F)(F)F)cc3s2)[C@@H](O)[C@H]1O` [Compound A322] was run?
**A.** > 20 µM
